# Assay results reported in patent US20240122179A1, “AUXINIC HERBICIDES AND METHODS OF USE THEREOF” (CORTEVA AGRISCIENCE LLC, priority 2021, published 2024).
# Where two headings read alike, the source gives them in different places.
# What was measured:
# Amaranthus rudis (AMATA) = experiment: Postemergence herbicide evaluation, percent reduction in plant size vs untreated control, 21 days after treatment; format: in vivo, Amaranthus rudis (tall water hemp); conditions: Amaranthus tuberculatus, post-emergence, 504 h, read-out: Control/Injury
# How it was run: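 Greenhouse-grown tall waterhemp (25-28° C, 16 h light) at the 2-8 leaf stage, treated by track sprayer at 187 L/ha with compound at 140 or 280 g ae/ha in acetone/DMSO-based spray solution with crop oil and surfactant. 3-4 replicates per treatment, randomized complete block; plant size reduction versus untreated control measured 21 days after treatment.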
# [1] = system: Ambrosia artemisiifolia (AMBEL); experiment: as above; format: in vivo, Ambrosia artemisiifolia (common ragweed); conditions: post-emergence, 504 h, read-out: Control/Injury
# How it was run: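 Greenhouse-grown plants (25–28 °C, 16 h light) were sprayed postemergence at the 2–8 leaf stage with 140 or 280 g ae/ha in acetone/DMSO-based spray solution with crop oil and surfactant, at 187 L/ha by track sprayer. There were 3–4 replicates. Plant size was measured 21 days after treatment versus untreated plants.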
# Kochia scoparia (KCHSC) = experiment: as above; format: in vivo; conditions: Bassia scoparia, post-emergence, 504 h, read-out: Control/Injury
# How it was run: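 Greenhouse-grown plants (25-28 °C, 16 h light) at the 2 to 8 leaf stage were track-sprayed postemergence at 140 or 280 g ae/ha in acetone/DMSO-based spray solution with crop oil and surfactant, at 187 L/ha, in 3-4 randomized replicates.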
# [2] = system: Amaranthus palmeri (AMAPA); experiment: as above; format: in vivo, Amaranthus palmeri (Palmer amaranth); conditions: post-emergence, 504 h, read-out: Control/Injury
# How it was run: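 Greenhouse-grown Palmer amaranth (25 to 28° C, 16 h light) sprayed postemergence at the 2 to 8 leaf stage with 140 or 280 g ae/ha in acetone/DMSO-based solution containing crop oil concentrate, 187 L/ha by track sprayer. Three to four replicates; plant size measured 21 days after treatment as percent reduction versus untreated control.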
# [3] = system: Conyza canadensis (L.) (ERICA); experiment: as above; format: in vivo, Conyza canadensis (L.) (Horseweed); conditions: Erigeron canadensis, post-emergence, 504 h, read-out: Control/Injury
# How it was run: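 Horseshoe-weed (horseweed) seedlings at 2 to 8 leaf stage in greenhouse (25-28° C, 16 h light), sprayed postemergence at 140 or 280 g ae/ha in acetone/DMSO-based spray solution, 187 L/ha track-sprayer. Randomized complete block, 3-4 replicates; plant size measured 21 days after treatment as percent reduction vs untreated controls.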
# Glycine max = experiment: whole plant or invertebrate; conditions: for plant injury at 140 g/ha / plant injury at 280 g/ha: Glycine max, post-emergence, 504 h, read-out: Control/Injury
# Protocol: Plants were grown in a soil media composed of 90% by volume Promix BX (Premier Tech Horticulture, Quakertown, PA) and 10% Profile Greens Grade (Profile Products LLC, Buffalo Grove, IL). Promix BX contains approximately 83% Sphagnum Peat Moss, 13% Perlite, 5% vermiculite, and proprietary amounts of limestone, starter fertilizer, and wetting agent. Profile Greens Grade is a sand-sized granule formed from calcining illite and montmorillonite clay. Several seeds of each species were planted in 10 cm square pots and top watered twice daily. Plant material was propagated in a warm greenhouse with temperature ranging from 25 to 28° C. and 50 to 60% relative humidity at the Corteva Global Headquarters (Indianapolis, Indiana, USA). Natural light was supplemented with 1000-watt metal halide overhead lamps with an average illumination of 500 μE m^−2 s^−1 photosynthetic active radiation for 16 consecutive hours each day. Plants were top-watered prior to herbicide application and sub-watered after herbicide application.
# Appropriate amounts of test materials were weighed out into glass vials in their technical form to deliver either 140 or 280 g acid equivalent (ae)/ha. The samples were dissolved in 3 ml of Solvent 1. Solvent 1 is 97% acetone and 3% dimethyl sulfoxide and serves as a general-purpose solvent (GPS) for dissolving technical materials. […] The samples were then diluted to their final concentration using 17 ml of solvent 2 for a total of 20 ml of spray solution. Solvent 2 contains 41.58% GPS, 45.53% water, 11.88% isopropyl alcohol, 0.99% crop oil concentrate and 0.02% Trition X-155 surfactant. All percentages are listed on a volume basis. Dicamba diglycolamine was applied as a formulated herbicide, Clarity™ and diluted with solvent 2 to compare all materials in the same spray solution.
# Herbicide applications were made to 3 to 4 replicates of each plant species at the 2 to 8 leaf stage, depending on the species. Treatments were applied with a research track-sprayer (Generation III Research Sprayer manufactured by DeVries Manufacturing in Hollandale, MN, USA) calibrated to deliver a spray volume of 187 L/ha. The track-sprayer was fitted with an 8003E nozzle from Spray Systems Company (North Avenue and Schmale Road, P.O. Box 7900, Wheaton, IL 60187), and used a spray pressure of 276 kPa pressure and a speed of 3.1 km/h. The nozzle height was 46 cm above the plant canopy. The experimental design used for the trials was a randomized complete block with 3 or 4 replications per treatment. After application, plants were placed on carts according to the randomization and returned to the greenhouse. Plants were sub-watered after treatment with Indianapolis city water or fertilized three times a week with a commercial fertilizer solution (Jack's Professional 15-5-15 4 Ca 2 Mg fertilizer (manufactured by JR PETERS INC., 6656 Grant Way, Allentown, PA 18106; www.jrpeters.com). Percent visual control assessments were made on a scale of 0 to 100% (where 0 was no control and 100 was complete plant death) at 7, 14, and 21 days after treatment.
# In conformity with the methods outlined in Example 49, the effect of representative experimental compounds on the growth of Glycine max was determined at 2 different levels (respectively, 140 and 280 g acid equivalent (ae)/ha) of the experimental actives tested. Plants were treated with one of the compounds, a control plant was not treated. Twenty-one days after treatment, the plants were measured. The data is present as a percent reduction in plant size relative to the untreated control.
# [4] = AMATA, rate 140 g ae/ha, postemergence
# [5] = AMATA, rate 280 g ae/ha, postemergence
# [6] = AMBEL, rate 140 g ae/ha, postemergence
# [7] = AMBEL, rate 280 g ae/ha, postemergence
# [8] = KCHSC, rate 140 g ae/ha, postemergence, percent reduction vs untreated control, 21 days after treatment
# [9] = KCHSC, rate 280 g ae/ha, postemergence, percent reduction vs untreated control, 21 days after treatment
# [10] = R-AMAPA, rate 140 g ae/ha, postemergence, percent reduction vs untreated control, 21 days after treatment
# [11] = R-AMAPA, rate 280 g ae/ha, postemergence, percent reduction vs untreated control, 21 days after treatment
# [12] = ERICA, rate 140 g ae/ha, postemergence, percent reduction vs untreated control, 21 days after treatment
# [13] = ERICA, rate 280 g ae/ha, postemergence, percent reduction vs untreated control, 21 days after treatment
# [14] = KCHSC, rate 140 g ae/ha, postemergence
# [15] = KCHSC, rate 280 g ae/ha, postemergence
Structure (SMILES),pest or weed control at 140 g/ha (Amaranthus rudis (AMATA); [4]) [%],pest or weed control at 280 g/ha (Amaranthus rudis (AMATA); [5]) [%],"pest or weed control at 140 g/ha [1, 6] [%]","pest or weed control at 280 g/ha [1, 7] [%]",pest or weed control at 140 g/ha (Kochia scoparia (KCHSC); [8]) [%],pest or weed control at 280 g/ha (Kochia scoparia (KCHSC); [9]) [%],"pest or weed control at 140 g/ha [2, 10] [%]","pest or weed control at 280 g/ha [2, 11] [%]","pest or weed control at 140 g/ha [3, 12] [%]","pest or weed control at 280 g/ha [3, 13] [%]",plant injury at 140 g/ha (Glycine max) [%],plant injury at 280 g/ha (Glycine max) [%],pest or weed control at 140 g/ha (Kochia scoparia (KCHSC); [14]) [%],pest or weed control at 280 g/ha (Kochia scoparia (KCHSC); [15]) [%],further results
COc1c(Cl)ccc(Cl)c1C(=O)O/N=C(\C)C(C)(C)C [Compound A-82],78,72,90,88,98,88,85,83,91,96,27,7,,,
COc1c(Cl)ccc(Cl)c1C(=O)O/N=C(\C#N)c1ccccc1 [Compound A-84],,,,,,,,,,,8,38,,,pest or weed control at 140 g/ha (Amaranthus rudis (AMATA)): 17%; pest or weed control at 280 g/ha (Amaranthus rudis (AMATA)): 27%; pest or weed control at 140 g/ha [1]: 70%; pest or weed control at 280 g/ha [1]: 78%; pest or weed control at 140 g/ha (Kochia scoparia (KCHSC)): 68%; pest or weed control at 280 g/ha (Kochia scoparia (KCHSC)): 85%; pest or weed control at 140 g/ha [2]: 33%; pest or weed control at 280 g/ha [2]: 28%; pest or weed control at 140 g/ha [3]: 37%; pest or weed control at 280 g/ha [3]: 78%
COc1c(Cl)ccc(Cl)c1C(=O)Nc1ncccn1 [Compound A-62],65,76,83,87,,,73,92,82,93,,,77,90,Control/Injury (Glycine max; in vivo): 3
COc1c(Cl)ccc(Cl)c1C(=O)ON1C(=O)c2ccccc2C1=O [Compound A-74],70,90,77,88,,,68,85,70,83,2,3,94,97,
COc1c(Cl)ccc(Cl)c1C(=O)NCc1ccccc1 [Compound A-114],0,5,5,0,,,,,,,,,,,"pest or weed control at 140 g/ha (Kochia scoparia (KCHSC); KCHSC, rate 140 g ae/ha, postemergence, percent reduction vs untreated, 21 days after treatment): 0%; pest or weed control at 280 g/ha (Kochia scoparia (KCHSC); KCHSC, rate 280 g ae/ha, postemergence, percent reduction vs untreated, 21 days after treatment): 0%; pest or weed control at 140 g/ha ([2]; AMAPA, rate 140 g ae/ha, postemergence): 5%; pest or weed control at 280 g/ha ([2]; AMAPA, rate 280 g ae/ha, postemergence): 5%; pest or weed control at 140 g/ha ([3]; ERICA, rate 140 g ae/ha, postemergence): 2%; pest or weed control at 280 g/ha ([3]; ERICA, rate 280 g ae/ha, postemergence): 7%; Control/Injury (Glycine max; in vivo): 3"
CCOC(=O)C(=NOC(=O)c1c(Cl)ccc(Cl)c1OC)C(=O)OCC [Compound A-87],37,20,70,65,90,70,62,53,30,33,5,28,,,
COc1c(Cl)ccc(Cl)c1C(=O)OCC[N+](C)(C)C [Compound A-63],58,77,82,97,,,73,87,85,92,,,92,97,"Control/Injury (Glycine max; GLXMA (soybean crop injury), rate 140 g ae/ha, postemergence, percent reduction vs untreated control, 21 days after treatment): 2; Control/Injury (Glycine max; GLXMA (soybean crop injury), rate 280 g ae/ha, postemergence, percent reduction vs untreated control, 21 days after treatment): 5"
CCCCCC(=O)NOC(=O)c1c(Cl)ccc(Cl)c1OC [Compound A-80],33,38,63,62,13,22,20,35,20,23,2,4,,,
